We go through one compound from US10307420B2, “Treating sexual desire disorders with flibanserin” (Sprout Pharmaceuticals, Inc., priority 2001, dated 2019).

Structures are written as SMILES.

A short description of assay [1]: studies of male and female patients suffering from sexual dysfunction. It counts as in vivo, human patients. The source says: Accordingly, the instant invention relates to the use of flibanserin, optionally in form of the pharmacologically acceptable acid addition salts thereof for the preparation of a medicament for the treatment of disorders of sexual desire.

In assay [2] the test system is 5HT2-receptor. Particulars: statement in the background, no value; cited from earlier work.
Assay [3] addresses T1, 5-HT1A receptor (Homo sapiens, UniProt P08908).
T1 sequence (P08908 1-422): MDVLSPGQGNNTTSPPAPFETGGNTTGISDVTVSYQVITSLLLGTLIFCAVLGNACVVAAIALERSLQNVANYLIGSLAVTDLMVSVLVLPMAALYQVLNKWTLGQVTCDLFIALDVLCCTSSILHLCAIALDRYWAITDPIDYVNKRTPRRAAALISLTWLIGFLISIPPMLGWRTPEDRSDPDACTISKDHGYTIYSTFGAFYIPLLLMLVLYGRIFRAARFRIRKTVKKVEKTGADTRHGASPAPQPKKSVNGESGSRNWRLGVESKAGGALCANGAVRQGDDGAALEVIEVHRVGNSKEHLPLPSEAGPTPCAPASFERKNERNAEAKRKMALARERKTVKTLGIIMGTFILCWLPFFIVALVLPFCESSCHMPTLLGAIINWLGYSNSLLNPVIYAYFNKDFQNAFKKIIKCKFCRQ
The note with it: statement in the background, no value; cited from earlier work.

In the case of `O=c1[nH]c2ccccc2n1CCN1CCN(c2cccc(C(F)(F)F)c2)CC1` [Flibanserin, 1-[2-(4-(3-trifluoromethyl-phenyl)piperazin-1-yl)ethyl]-2,3-dihydro-1H-benzimidazol-2-one], the “sexual desire enhancing properties” value in assay [1] was “displays sexual desire enhancing properties”. For the same compound, the “affinity for the 5HT2-receptor” value in assay [2] was “shows affinity”. In assay [3], the “affinity for the 5-HT1A receptor” value is listed as “shows affinity”.
